Measurements: a compilation of properties of binary mixtures (doi:10.1021/acs.jced.1c00419)

Assay: xn = mol fraction of the nth substance listed
Conditions: 101.3 kPa

NC1CCCCC1 + CCCC[n+]1ccn(C)c1.F[B-](F)(F)F
speed of sound [m/s]
Conditions	x2 = 0	x2 = 0.0982	x2 = 0.2032	x2 = 0.301	x2 = 0.4012	x2 = 0.4828	x2 = 0.6016	x2 = 0.7124	x2 = 0.8012	x2 = 0.9024
293.15 K	–	1442	1456	1469	1484	1496	1514	1532	1545	–
298.15 K	1409	1420	1435	1450	–	1479	–	1517	1533	1549
303.15 K	1387	1400	1415	1431	1448	1462	1484	–	1520	1538
308.15 K	–	1380	1395	1412	1430	1445	1467	1488	1506	1525
313.15 K	1344	1360	1376	–	1413	1428	1452	1474	1493	–
318.15 K	1323	1340	1357	–	1396	1412	1436	1460	1479	1501
323.15 K	–	1320	1338	1356	1378	1395	–	1446	1466	1489

NC1CCCCC1 + CCCCCC[n+]1ccn(C)c1.F[B-](F)(F)F
x2 = 0
Conditions	speed of sound [m/s]
293.15 K	1430
298.15 K	1409
303.15 K	1387
308.15 K	1366
313.15 K	1344
318.15 K	1323
323.15 K	1302

CCCCCCCCn1cc[n+](C)c1.F[B-](F)(F)F + NC1CCCCC1
speed of sound [m/s]
Conditions	x1 = 0.1076	x1 = 0.203	x1 = 0.3072	x1 = 0.4001	x1 = 0.492	x1 = 0.6078	x1 = 0.7023	x1 = 0.7996	x1 = 0.8963
293.15 K	–	1453	–	1470	–	1480	1486	1490	–
298.15 K	1423	–	1445	1452	1459	1465	–	1475	1480
303.15 K	–	–	1427	1435	1443	1450	1455	1460	1466
308.15 K	1382	1396	–	1418	1426	1435	1440	1446	1452
313.15 K	1362	1377	1391	1401	–	1419	1426	1432	1439
318.15 K	1342	1358	–	–	1394	–	–	1418	1426
323.15 K	–	1340	1355	1368	1377	1388	1396	1405	–

NC1CCCCC1 + CCCCCCCCn1cc[n+](C)c1.F[B-](F)(F)F
x2 = 0
Conditions	speed of sound [m/s]
293.15 K	1430
303.15 K	1387
323.15 K	1302

CCCCCC[n+]1ccn(C)c1.F[B-](F)(F)F + NC1CCCCC1
speed of sound [m/s]
Conditions	x1 = 0.097	x1 = 0.1808	x1 = 0.2945	x1 = 0.396	x1 = 0.5009	x1 = 0.6048	x1 = 0.7029	x1 = 0.8008	x1 = 0.8991
293.15 K	1440	1452	1465	–	1486	1496	1505	–	1522
298.15 K	–	–	1446	1458	1469	1480	1490	1499	–
303.15 K	1400	1411	1427	1440	1453	–	1475	1485	1496
308.15 K	1379	1392	1408	1422	1435	1449	1460	–	–
313.15 K	–	1371	1389	1404	1418	–	1445	1457	1470
318.15 K	1337	1351	1370	1385	1402	1417	1430	1444	–
323.15 K	1316	1331	–	–	–	1401	–	1430	1444
